In patent US20240041877A1, “DOSAGE REGIME AND METHOD FOR TREATING PULMONARY ARTERIAL HYPERTENSION” (Altavant Sciences GmbH, priority 2019, published 2024):

Test: clinical
Conditions: human, plasma, oral, 100 mg
From the text: Food effect was to be evaluated in Part 1, Period 2.
Pharmacokinetic data were to be summarized descriptively.

With `Nc1nc(O[C@H](c2ccc(Cl)cc2-c2ccccc2)C(F)(F)F)cc(N2CCC3(CC2)CN[C@H](C(=O)O)C3)n1` [KAR5417, (S)-8-(2-amino-6-((R)-1-(5-chloro-[1,1T-biphenyl]-2-yl)-2,2,2-trifluoroeth-oxy)pyrimidin-4-yl)-2,8-diazaspiro[4.5]decane-3-carboxylic acid] the Cmax at 1 day was 121 ng/mL and the Cmax at 14 day was 194 ng/mL.
